Test results taken from US20190030114A1, “ISOFORM-SPECIFIC CALPAIN INHIBITORS, METHODS OF IDENTIFICATION, AND USES THEREOF” (WESTERN UNIVERSITY OF HEALTH SCIENCES, priority 2014, published 2019).

Test system: learning and memory
Assay: fear conditioning protocol
Assay type: in vivo, mice
Settings: various doses i.p. 30 min before training
Experimental: (§1) FIG. 7A: Effects of an calpain-2 selective inhibitor on fear conditioning. […] Various doses of the compound of Formula I (m-CalpI in the drawing) were injected i.p. 30 min before training to learn the association between a context or a tone with a painful stimulus. Animals were tested 24 h later for their fear responses to the context, and memory strength was quantified by the amount of time mice freeze (their biological response to fear). The ratio between the doses producing enhancement and decrease matches the ratio between the Kis to inhibit calpain-2 and calpain-1. […] Results are means±S.E.M. of 8-10 experiments. *p<0.05 (ANOVA followed by Bonferroni post-test).
as §1, with “7B:” for “7A:”, “1 (m-CalpI)” for “I (m-CalpI in the drawing)”, “48” for “24”, “tone,” for “context,”
Formula 1 Enhances Memory. […] In this protocol, mice were trained to learn the association between a context or a tone with a painful stimulus. Various doses of the compound of Formula 1 (mCalp-I) were injected i.p. 30 min before training. Animals were tested 24 h later in the context (FIG. 7A) and 48 h later with the tone (FIG. 7B). When tested 24 h or 48 h later for their fear responses to either the context or the tone, memory strength was quantified by the amount of time mice freeze (their biological response to fear). The ratio between the doses producing enhancement and decrease matches the ratio between the Kis to inhibit calpain-2 and calpain-1. […] Results are means±S.E.M. of 8-10 experiments. *p<0.05 (ANOVA followed by Bonferroni post-test).

CCC(NC(=O)C(CC(C)C)NC(=O)OCc1ccccc1)C(=O)C(=O)NCc1cc(OC)cc(OC)c1 (racemic) [Formula 1, Z-Leu-Abu-CONH—CH2-C6H3 (3, 5-(OMe)2)]
biphasic effect: effect on learning and memory in the fear conditioning protocol (context 24 h, tone 48 h) | effect on learning and memory, fear response to the context (tested 24 h later) | effect on learning and memory, fear response to the tone (tested 48 h later)
